One may read the IC50 as the concentration at which inhibition is half-maximal. High values mean a need for much substance, low ones inhibition by little substance. What is called solubility is the concentration that dissolves in the medium under given conditions.

Values after ≈ are worked out from the molar mass of the structure shown. Read-outs that look alike come from different tables or passages of the source.

One data set relates to LOVO cells. The data set is described as follows: LOVO CTG proliferation assay (120 h) (CRC, G13D). As to conditions: Homo sapiens, CTG 120 h. Type of data set: cell-based. The method, boiled down:
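LOVO cells, 1000 per well in DMEM + 10% FCS, were plated overnight and then dosed with compound from DMSO stock. After 120 h at 37 °C, viability was read by CellTiter-Glo luminescence as a percentage of DMSO controls. IC50 was derived by four-parameter non-linear regression.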

Another data set concerns SAS cells. The data set is described as follows: SAS CTG proliferation assay (120 h) (HNSCC, wt amplified). Type of data set: cell-based. The essentials: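 SAS cells plated at 300 per well in DMEM:F12 with 10% FCS and left overnight, then given compounds acoustically. After 120 h exposure, viability read by CellTiter-Glo as percent of DMSO control. IC50 from four-parameter non-linear regression.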

Data set [1] can be described thus: Solubility measurement (DMSO solution method), McIlvaine buffer pH 4.5 or 6.8. Type of data set: physicochemical. As to conditions: aqueous buffer, kinetic from dmso stock, DMSO stock diluted to 250 μM, 24 h shaking at ambient temperature. The essentials:
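DMSO stock diluted into McIlvaine buffer, pH 4.5 or 6.8, to 250 µM final, shaken 24 h at ambient temperature. Precipitate removed by filtration; filtrate quantified by LC-UV against a fully dissolved reference in acetonitrile/water 1:1.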

The subject of another data set is AsPC-1 cells. The data set is described as follows: AsPC-1 CTG proliferation assay (120 h) (pancreatic cancer, G12D). Type of data set: cell-based. The settings on record: Homo sapiens, ASPC1. The essentials: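 AsPC-1 cells (KRAS G12D), 2000/well in RPMI with 10% FCS, seeded overnight, then treated with compound for 120 h at 37 °C. Viability by CellTiter-Glo luminescence as percent of DMSO control. IC50 from a four-parameter non-linear fit.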

For data set [2], the system named is KRAS G12C-dependent Ba/F3 cells. The data set can be described thus: Ba/F3 proliferation assay, KRAS G12C. Type of data set: cell-based. As to conditions: Mus musculus, BaF3, 72 h, AlamarBlue. The method, boiled down:
(§1)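 Viability is measured as AlamarBlue fluorescence in Ba/F3 cells that depend on a transduced mutant KRAS isoform for growth without IL-3. Each treatment is run in technical duplicate, and dose-response curves are fitted.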
On the technique in general: Alamar Blue is a resazurin reagent that responds to reducing activity.

Data set [3] is described as follows: Plasma protein binding assay (PPB), equilibrium dialysis, 10% FCS in PBS. Type of data set: in vitro ADME. The settings on record: bovine, read-out: PPB 10% FCS (% fu). The essentials:
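Equilibrium dialysis (5-10 kg/mol cut-off membrane) of 1-10 μmol/L test compound in 10% FCS/PBS against PBS with or without dextran, 3-5 h at 37° C. Compound in each chamber quantified by LC-MS after protein precipitation; fu calculated from Cserum and Cbuffer.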

Data set [4] concerns KRAS G12V-dependent Ba/F3 cells. The data set can be described thus: Ba/F3 proliferation assay, KRAS G12V.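 Also: proliferation IC50 in KRAS G12V-dependent Ba/F3 cells read by AlamarBlue.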 Type of data set: cell-based. The settings on record: Mus musculus, BaF3, 72 h, AlamarBlue. The essentials:
as §1

The mark [5] stands for this setting: McIlvaine buffer pH 4.5, read-out: solubility pH 4.5.
Setting [6] is: McIlvaine buffer pH 6.8, read-out: solubility pH 6.8.

As to `C[C@H](Oc1cc(-c2ccn([C@H]3CCCOC3)n2)nc(-c2noc3c2CCC[C@@]32CCCc3sc(N)c(C#N)c32)n1)[C@@H]1CCCN1C` [II-42], the IC50 in the data set on LOVO cells came out at 149 nM; in the data set on SAS cells, 264 nM; with AsPC-1 cells, 1890 nM; in data set [2], 34 nM; in data set [4], 5 nM. In addition, the solubility at 24 h in data set [1] (setting [5]) was 119 µg/mL (≈ 186 µM); in data set [1] (setting [6]), 9 µg/mL (≈ 14 µM). In addition, in data set [3], the fraction unbound worked out at 0.1.

`C[C@H](Oc1cc(-c2ccn(C[C@@H]3CCCO3)n2)nc(-c2noc3c2CCC[C@@]32CCCc3sc(N)c(C#N)c32)n1)[C@@H]1CCCN1C` [II-43]: the half-maximal inhibitory concentration (IC50) in the data set with LOVO cells stood at 120 nM; with SAS cells, 24 nM; with AsPC-1 cells it was 2050 nM; in data set [2], 37 nM; in data set [4], 8 nM. Besides, the solubility at 24 h in data set [1] (setting [5]) worked out at 121 µg/mL (≈ 189 µM); in data set [1] (setting [6]), 9 µg/mL (≈ 14 µM). In addition, the fraction unbound in data set [3] turned out to be 0.11.

Turning to `C[C@H](Oc1cc(C2CCCO2)nc(-c2noc3c2CCC[C@@]32CCCc3sc(N)c(C#N)c32)n1)[C@@H]1CCCN1C` (stereo partly shown) [II-44], the IC50 in the data set with LOVO cells is 92 nM; with SAS cells, 6000 nM; with AsPC-1 cells it was 2160 nM; in data set [2], 28 nM; in data set [4], 14 nM. The solubility at 24 h was more than 115 µg/mL in data set [1] (setting [5]) and 104 µg/mL (≈ 185 µM) in data set [1] (setting [6]). In addition, the fraction unbound in data set [3] turned out to be 0.39.

With `C[C@H](Oc1cc(N2CCNCC2)nc(-c2noc3c2CCC[C@@]32CCCc3sc(N)c(C#N)c32)n1)[C@@H]1CCCN1C` [II-45], the IC50 in the data set on LOVO cells was determined as 6600 nM; with SAS cells it was 530 nM; with AsPC-1 cells, 2310 nM; in data set [2] it was 606 nM; in data set [4], 642 nM. In addition, the solubility at 24 h in data set [1] (setting [5]) is more than 135 µg/mL; in data set [1] (setting [6]), more than 118 µg/mL. Also, in data set [3], the fraction unbound was determined as 0.61.

Regarding `C[C@H](Oc1cc(N2CC[C@@H](N(C)C)C2)nc(-c2noc3c2CCC[C@@]32CCCc3sc(N)c(C#N)c32)n1)[C@@H]1CCCN1C` [II-47], the IC50 in the data set with LOVO cells was 459 nM; in the data set on SAS cells, 2620 nM; with AsPC-1 cells, 991 nM; in data set [2], 240 nM; in data set [4], 164 nM. The solubility at 24 h in data set [1] (setting [5]) was more than 162 µg/mL; in data set [1] (setting [6]), more than 145 µg/mL. In addition, the fraction unbound in data set [3] came to 0.34.

As for `C[C@H](Oc1cc(N2CCC(N(C)C)CC2)nc(-c2noc3c2CCC[C@@]32CCCc3sc(N)c(C#N)c32)n1)[C@@H]1CCCN1C` [II-48], the half-maximal inhibitory concentration (IC50) with LOVO cells amounted to 736 nM; with SAS cells, 3880 nM; in the data set with AsPC-1 cells it was 1490 nM; in data set [2], 724 nM; in data set [4], 581 nM. Besides, the solubility at 24 h in data set [1] (setting [5]) is more than 164 µg/mL; in data set [1] (setting [6]), more than 149 µg/mL. Moreover, in data set [3], the fraction unbound amounted to 0.62.

For the compound `C[C@H](Oc1cc(-n2ccsc2=O)nc(-c2noc3c2CCC[C@@]32CCCc3sc(N)c(C#N)c32)n1)[C@@H]1CCCN1C` [II-135], the IC50 in the data set on LOVO cells came out at 51 nM; in the data set with SAS cells it was 69 nM; in the data set on AsPC-1 cells it was 1390 nM; in data set [2] it was 4 nM; in data set [4] it was 4 nM. Also, the solubility at 24 h in data set [1] (setting [5]) is 19 µg/mL (≈ 32.2 µM); in data set [1] (setting [6]) it was less than 1 µg/mL. In data set [3], the fraction unbound is 0.06.

In the case of `[2H]C([2H])([2H])N1C[C@H](F)C[C@H]1[C@H](C)Oc1cc(N2CCN(C)C3(CC3)C2)nc(-c2noc3c2CCC[C@@]32CCCc3sc(N)c(C#N)c32)n1` [II-209], the IC50 in the data set with LOVO cells stood at 493 nM; with SAS cells, 737 nM; with AsPC-1 cells it was 59 nM; in data set [2], 271 nM; in data set [4], 389 nM. In addition, the solubility at 24 h in data set [1] (setting [5]) was more than 150 µg/mL; in data set [1] (setting [6]), less than 1 µg/mL. For the same compound, the fraction unbound in data set [3] is 0.06.

(Values after patent US20240174690A1, “ANNULATED 2-AMINO-3-CYANO THIOPHENES AND DERIVATIVES FOR THE TREATMENT OF CANCER” (BOEHRINGER INGELHEIM INTERNATIONAL GMBH, priority 2021, published 2024).)
